# Data published in patent US10083341B2, “Cellular activity quantification using labeled probes” (Oregon Health & Science University, priority 2014, dated 2018).
# “Also recorded” adds a separate entry of the source. Where two headings read alike, the source gives them in different places.
# Tests used:
# [1] = test system: MOLM-14 cells; assay: Inhibitory concentrations (IC50, IC12.5) of kinase inhibitor panel for MOLM-14 cells; format: cell-based, human; details: concentration used for 48 h treatment
# [2] = test system: pCRKL; assay: SC-QDP discrete QD counting of pCRKL in K562 cells; format: cell-based, human; details: pCRKL level divided by isotype control, untreated 11.4
# Description: (§1) Cell culture and kinase inhibitor treatment. Primary mononuclear cells (MNCs) were isolated from peripheral blood or bone marrow of newly diagnosed, untreated patients with chronic phase CML. MNCs were isolated by centrifugation through a Ficoll gradient, and red blood cells were lysed with 1×ACK (0.15 M NH4Cl, 10 mM KHCO3, 0.1 mM EDTA). MNCs were grown in serum-free media consisting of IMDM supplemented with 20% BIT (Stem Cell Technologies), 40 μg/ml low-density lipoprotein (Sigma-Aldrich), 10^-6 M β-mercaptoethanol, and the following cytokines: 100 ng/ml SCF (Stem Cell Technologies), 100 ng/ml G-CSF, 20 ng/ml FLT3 ligand, 20 ng/ml IL-3, and 20 ng/ml IL-6 (Sigma-Aldrich). MNCs were grown at a density of 5×10^5 cells/ml at 37° C., 5% CO2, overnight in a humidified incubator before drug treatment. […]
# (§2) SC-QDP image acquisition. Cells were imaged with an inverted fluorescent microscope (Zeiss AxioObserver) equipped with high magnification objectives, QD filter sets (Semrock), and a Luca-R camera (Andor) suitable for detecting discrete QD fluorescence. […]
# (§3) SC-QDP discrete QD counts in single cells. Levels of phosphoprotein activity were quantified in single cells using automated software imaging algorithms. […]
# [3] = test system: pCRKL; assay: QD total (diffuse) fluorescence quantification of pCRKL in K562 cells; format: cell-based, human; details: dasatinib-treated, untreated 1.1
# Description: as §1, §2
# Measurements of single-cell total fluorescence of QD and Alexa dyes were obtained for each cell by summing pixel values from all slices in a single z-stack corresponding to each cell and subtracting the global background value for each field of view from the image. […]
# [4] = test system: pCRKL; assay: SC-QDP pCRKL in single CD34+ cells from CML patients; format: cell-based, human; details: dasatinib 100 nM, 4 h
# Description: (§4) Cell culture and kinase inhibitor treatment. Primary mononuclear cells (MNCs) were isolated from peripheral blood or bone marrow of newly diagnosed, untreated patients with chronic phase CML. MNCs were isolated by centrifugation through a Ficoll gradient, and red blood cells were lysed with 1×ACK (0.15 M NH4Cl, 10 mM KHCO3, 0.1 mM EDTA). MNCs were grown in serum-free media consisting of IMDM supplemented with 20% BIT (Stem Cell Technologies), 40 μg/ml low-density lipoprotein (Sigma-Aldrich), 10^-6 M β-mercaptoethanol, and the following cytokines: 100 ng/ml SCF (Stem Cell Technologies), 100 ng/ml G-CSF, 20 ng/ml FLT3 ligand, 20 ng/ml IL-3, and 20 ng/ml IL-6 (Sigma-Aldrich). MNCs were grown at a density of 5×10^5 cells/ml at 37° C., 5% CO2, overnight in a humidified incubator before drug treatment. The CML (K562) and AML (MOLM-14) cell lines were grown in suspension culture, in RPMI with 10% fetal bovine serum (Invitrogen), 1% L-glutamine (100 mM), and 1% penicillin/streptomycin (100 μg/ml), in a humidified incubator at 37° C., 5% CO2.
# K562 cells and MNCs were treated for 4 h with dasatinib, at a concentration of 100 nM unless otherwise specified. […].
# (§5) SC-QDP phosphoprotein labeling. Cells were fixed, permeabilized and dispersed onto cover glass chambers (Lab-Tek; Nunc), or custom-made, multi-well cover glass chambers for high throughput assays. The cells in each well were blocked and treated with primary anti-phosphoprotein antibodies (pCRKL, pSTAT5, pSTAT3, pERK1/2, pAKT473; Cell Signaling Technology). The anti-CD34 antibody (Dako, USA) was used for selection of CD34+ primitive cells. […]
# as §2, §3
# [5] = test system: pSTAT5; assay: SC-QDP pSTAT5 in single CD34+ cells from CML patients; format: cell-based, human; details: five CML patients, dasatinib 100 nM, 4 h
# Description: as §1, §2, §3
# [6] = test system: pAKT; details: MOLM-14 cells, 48 h
# Description: as §4
# (§6) K562 cells and MNCs were treated for 4 h with dasatinib, at a concentration of 100 nM unless otherwise specified.
# (§7) SC-QDP phosphoprotein labeling. Cells were fixed, permeabilized and dispersed onto cover glass chambers (Lab-Tek; Nunc), or custom-made, multi-well cover glass chambers for high throughput assays. The cells in each well were blocked and treated with primary anti-phosphoprotein antibodies (pCRKL, pSTAT5, pSTAT3, pERK1/2, pAKT473; Cell Signaling Technology). The anti-CD34 antibody (Dako, USA) was used for selection of CD34+ primitive cells. […] After cells were incubated with secondary antibodies, they were washed in buffer solution and imaged.
# (§8) SC-QDP image acquisition. Cells were imaged with an inverted fluorescent microscope (Zeiss AxioObserver) equipped with high magnification objectives, QD filter sets (Semrock), and a Luca-R camera (Andor) suitable for detecting discrete QD fluorescence. Data acquisition consisted of acquiring multiple fields of view randomly for each well of the multi-well chamber. The microscope was controlled by Micromanager (www.micro-manager.org/). […] Image acquisition was performed manually or by automated high-throughput scanning. For automated high-throughput scanning, a custom-written Java plugin for Micromanager was used that allows scanning of user-selected wells as well as random or user-selected areas within each well for DIC, and appropriate multiple quantum dot (QD) channels. The Java plugin also corrected slide tilt by determining the slide focal plane. Image focus at each well was verified and corrected manually if needed.
# (§9) SC-QDP discrete QD counts in single cells. Levels of phosphoprotein activity were quantified in single cells using automated software imaging algorithms. Cell segmentation was first done manually and then was optimized for speed using an automated procedure. Automated cell segmentation comprised detecting the nucleus and plasma membrane using a threshold-based intensity algorithm and a membrane expansion cell segmentation algorithm (www.cellprofiler.org) of each cell. Discrete QD fluorescence was detected, localized and tabulated on a per cell basis using automated algorithms written in MATLAB (Matlab). Briefly, detection of discrete QD probes was accomplished in single-cell z-stacks by applying a spatial bandpass filter, detecting localized maxima, and calculating the position of each QD for each z-slice. […] The output of these automated algorithms comprised total counts of detected and localized discrete QD fluorescent puncta in each single cell z-stack.
# [7] = test system: pERK; details: MOLM-14 cells, 48 h
# Description: as §4, §6, §7, §8, §9
# [8] = test system: pCRKL, pSTAT5, and pSTAT3; assay: SC-QDP baseline phosphoheterogeneity of K562 cells after cell cycle synchronization; format: cell-based, human; details: lovastatin-induced cell cycle synchronization, data not shown
# Excerpt: as §5, §2
# SC-QDP discrete QD counts in single cells. Levels of phosphoprotein activity were quantified in single cells using automated software imaging algorithms. […] Discrete QD fluorescence was detected, localized and tabulated on a per cell basis using automated algorithms written in MATLAB (Matlab). […] The output of these automated algorithms comprised total counts of detected and localized discrete QD fluorescent puncta in each single cell z-stack. […] The QDs were identified as discrete, non-aggregated units comprised of single or a few QDs, as confirmed by intensity profile measurements of QD fluorescence. […]
SMILES,IC50 ([1]; Homo sapiens) [µM],IC12.5 [1] [µM],IC12.5 ([1]; Homo sapiens) [µM],further results
CNC(=O)c1ccccc1Sc1ccc2c(/C=C/c3ccccn3)n[nH]c2c1 [axitinib],,0.025,,
C#Cc1cccc(Nc2ncnc3cc(OCCOC)c(OCCOC)cc23)c1 [erlotinib],7,,1.75,overall shift of pAKT PDE curve [6]: left-shift; pAKT phosphoresponse ([6]; at IC12.5): phosphoinhibition; also recorded: inhibition of pAKT; pAKT phosphoresponse ([6]; at IC50): phosphoactivation; also recorded: pAKT activation; overall shift of pERK PDE curve [7]: left-shift; percentage of resistant cells (pERK equal to or greater than mean pERK of untreated cells) ([7]; IC50 concentration (FIG. 5C legend)): 36%; pERK phosphoresponse ([7]; at IC12.5): phosphoinhibition; pERK phosphoresponse ([7]; at IC50): phosphoactivation
COc1cc2ncnc(Nc3ccc(F)c(Cl)c3)c2cc1OCCCN1CCOCC1 [gefitinib],,,2.25,
C=CC(=O)N1CCC[C@@H](n2nc(-c3ccc(Oc4ccccc4)cc3)c3c(N)ncnc32)C1 [ibrutinib],1.6,,0.4,
Cc1ccc(NC(=O)c2ccc(CN3CCN(C)CC3)cc2)cc1Nc1nccc(-c2cccnc2)n1 [imatinib],,,2.5,
CS(=O)(=O)CCNCc1ccc(-c2ccc3ncnc(Nc4ccc(OCc5cccc(F)c5)c(Cl)c4)c3c2)o1 [lapatinib],9,,2.25,
CC[C@H](C)C(=O)O[C@H]1C[C@@H](C)C=C2C=C[C@H](C)[C@H](CC[C@@H]3C[C@@H](O)CC(=O)O3)[C@H]21 [lovastatin],,,,baseline phosphoheterogeneity [8]: reduced this heterogeneity
Cc1ccc(Nc2nccc(N(C)c3ccc4c(C)n(C)nc4c3)n2)cc1S(N)(=O)=O [pazopanib],2,,0.5,
Cc1ccc(C(=O)Nc2ccc(CN3CCN(C)CC3)c(C(F)(F)F)c2)cc1C#Cc1cnc2cccnn12 [ponatinib],0.004,0.001,,
CCN(CC)CCNC(=O)c1c(C)[nH]c(/C=C2\C(=O)Nc3ccc(F)cc32)c1C [sunitinib],0.012,0.003,,

# Now from value to molecule, other results behind:
IC50 ([1]; Homo sapiens) [µM],SMILES,IC12.5 [1] [µM],IC12.5 ([1]; Homo sapiens) [µM],further results
1.8,C[C@@H](Oc1cc(-c2cnn(C3CCNCC3)c2)cnc1N)c1c(Cl)ccc(F)c1Cl [crizotinib],,0.45,
0.4,Cc1nc(Nc2ncc(C(=O)Nc3c(C)cccc3Cl)s2)cc(N2CCN(CCO)CC2)n1 [dasatinib],0.1,,"pCRKL activity S/N ratio by QD counting ([2]; dasatinib 10 nM): 4.7; pCRKL activity S/N ratio by QD counting ([2]; dasatinib 100 nM): 2.3; pCRKL S/N ratio by QD total fluorescence [3]: 1.7; pCRKL inhibition (shift in peak of PDE curve) ([4]; CD34+ cells of five CML patients): ~1.8 fold; frequency of dasatinib-resistant CD34+ cells, alternative threshold (pCRKL greater than mean untreated − 0.5σ untreated) ([4]; five CML patients): 8.5-53.9%; frequency of dasatinib-resistant CD34+ cells (pCRKL equal to or greater than mean of untreated CD34+ cells) ([4]; five CML patients, of total dasatinib-treated cell population): 5.4-9.9%; resistant CD34+ cell population (pSTAT5 greater than mean pSTAT5 of untreated CD34+ cells) [5]: 17-37%"
9,Cc1cn(-c2cc(NC(=O)c3ccc(C)c(Nc4nccc(-c5cccnc5)n4)c3)cc(C(F)(F)F)c2)cn1 [nilotinib],,2.25,
0.02,CO[C@H]1C[C@@H]2CC[C@@H](C)[C@@](O)(O2)C(=O)C(=O)N2CCCC[C@H]2C(=O)O[C@H]([C@H](C)C[C@@H]2CC[C@@H](O)[C@H](OC)C2)CC(=O)[C@H](C)/C=C(\C)[C@@H](O)[C@@H](OC)C(=O)[C@H](C)C[C@H](C)/C=C/C=C/C=C/1C [rapamycin],0.005,,
10,N#CC[C@H](C1CCCC1)n1cc(-c2ncnc3[nH]ccc23)cn1 [ruxolitinib],,2.5,
0.008,CNC(=O)c1cc(Oc2ccc(NC(=O)Nc3ccc(Cl)c(C(F)(F)F)c3)cc2)ccn1 [sorafenib],0.002,,
3.6,COc1cc2c(Nc3ccc(Br)cc3F)ncnc2cc1OCC1CCN(C)CC1 [vandetanib],,0.9,
